Patent US4906755A, “Esters of hexahydro-8-hydroxy-2,6-methano-2H-quinolizin-3-(4H)-one and related compounds” (Merrell Dow Pharmaceuticals Inc., priority 1989, dated 1990)
Counter-ions that a name gives are not always drawn.

How the values were obtained:
[1] = animal experimental model (Miner et al.; Costall et al. 1986); cited from earlier work
[2] = double-blind clinical trial (Loisy et al. 1985); cited from earlier work
[3] = target: 5-HT M-receptor; details: 5-HT receptor antagonism; literature values (Fozard et al.); cited from earlier work
[4] = test system: Von Bezold-Jarisch Reflex induced by 5-HT; assay: Von Bezold-Jarisch Reflex induced by 5-HT injected intravenously into the rat; type: in vivo
Text: The activity of these compounds against 5-HT can be assessed in vivo by measurement of the effect of the compound on the Von Bezold-Jarisch Reflex induced by 5-HT injected intravenously into the rat (see Paintal A. S., Physiol. Rev., 53, 159-227 […]; J. R. Fozard, Naunyn-Schmiedeberg's Arch. Pharmacol., 326, (1984) 36-44). The transient cardiac slowing arises from an increased afferent vagus activity arising from stimulation by 5-HT of sensory afferent fibers in and around the heart.

[5] = slow intravenous injection, 10 mg; cited from earlier work
[6] = doses of 0.01-0.1 mg/kg given intravenously
[7] = doses of 0.25-1 mg/kg given orally

## CN1[C@@H]2CC[C@H]1C[C@@H](OC(=O)c1cc(Cl)cc(Cl)c1)C2 [3,5-dichlorobenzoyltropine]
[1]
  prevention of nausea and vomiting induced by cancer chemotherapeutic agents: highly effective
[2]
  treatment of the acute migraine attack: proved an effective treatment

## CN1[C@@H]2CC[C@H]1C[C@@H](OC(=O)c1c[nH]c3ccccc13)C2 [(3α-tropanyl)-lH-indole-3-carboxylic acid ester]
[1]
  prevention of nausea and vomiting induced by cancer chemotherapeutic agents: highly effective

## CN1[C@@H]2CC[C@H]1C[C@@H](OC(=O)c1ccccc1)C2 [benzoyltropine]
[3]
  pA2: 7.2

## Cc1cc(C)cc(C(=O)O[C@@H]2C[C@@H]3C[C@@H]4C[C@H](C2)N3CC4=O)c1 [endo-8-(3,5-dimethylbenzoyloxy)hexahydro-2,6-methano-2H-quinolizin3(4H)-one]
[4]; [6]
  suppression of the Von Bezold-Jarisch Reflex response: suppressed the response dose-dependently
[4]; [7]
  suppression of the Von Bezold-Jarisch Reflex response: suppressed the response dose-dependently

## O=C(O[C@@H]1C[C@@H]2C[C@@H]3C[C@H](C1)N2CC3=O)c1c[nH]c2ccccc12 [endo-hexahydro-8-(3-indolylcarbonyloxy)-2,6-methano-2H-quinolizin-3(4H)onehydrochloride]
[4]; [6]
  suppression of the Von Bezold-Jarisch Reflex response: suppressed the response dose-dependently
[4]; [7]
  suppression of the Von Bezold-Jarisch Reflex response: suppressed the response dose-dependently

## CCN(CC)CCNC(=O)c1cc(Cl)c(N)cc1OC [metoclopramide]
[1]
  prevention of nausea and vomiting induced by cancer chemotherapeutic agents: highly effective
[3]
  pA2: 7.2
[5]
  relief of an acute migraine attack: immediate relief

## COC(=O)[C@H]1[C@@H](OC(=O)c2ccccc2)C[C@@H]2CC[C@H]1N2 [nor (-) cocaine]
[3]
  pA2: 7.7

## CN1[C@@H]2CC[C@H]1C[C@H](OC(=O)c1ccccc1)C2 [pseudotropyl benzoate]
[3]
  pA2: 7.0
